# Source: the OligoGym collection
# Values joined by “and” are separate entries in the source; they are usually repeats but may differ in a detail not shown here. Equal values may be shown once. After the bases stand the sugars from the 5' end (letter, count) and the backbone: PS all phosphorothioate, else s phosphorothioate and o phosphodiester by linkage. Methylation of C is not given here. e = 2'-O-(2-methoxyethyl) (MOE); k = constrained ethyl (cEt); d = 2'-deoxy (DNA); m = 2'-O-methyl
# Key:
# IRF4 = details: ASO
# HSD17B13 = details: ASO, HepaRG, 1 µM
sequence,measurement,setting,value
"GACAGCCGAAGCATTT (sugars k3 d10 k3, PS)",target mRNA inhibition,"IRF4; MM.1R, 1 µM",6%
"GGCTAAACCTGGCACC (sugars k3 d10 k3, PS)",target mRNA inhibition,"IRF4; SK-MEL-28, 4 µM",40%
"AGACAAGTGCCCATCC (sugars k3 d10 k3, PS)",target mRNA inhibition,"IRF4; MM.1R, 1 µM",1%
"TCCTTTCCTACAGATC (sugars k3 d10 k3, PS)",target mRNA inhibition,"IRF4; SK-MEL-28, 4 µM",33%
"ATCAAGTAAAGTGATC (sugars k3 d10 k3, PS)",target mRNA inhibition,"IRF4; SK-MEL-28, 4 µM",29%
"TGATAGCTGAGCTGAT (sugars kddddddddddkekek, PS)",target mRNA inhibition,"IRF4; MM.1R, 1 µM",22%
"ATTATAGAGCATCACT (sugars k3 d10 k3, PS)",target mRNA inhibition,"IRF4; MM.1R, 1 µM",-6%
"CGTGTGCTTGCCAAGC (sugars kkddddddddddkeke, PS)",target mRNA inhibition,"IRF4; MM.1R, 1 µM",55% and 45%
"ATCCATGTTGCATGGC (sugars k3 d10 k3, PS)",target mRNA inhibition,"IRF4; SK-MEL-28, 4 µM",61%
"ACACATTTGAGAGCTA (sugars k3 d10 k3, PS)",target mRNA inhibition,"IRF4; SK-MEL-28, 4 µM",69%
"CAGCCGAAGCATTTTA (sugars k3 d10 k3, PS)",target mRNA inhibition,"IRF4; MM.1R, 1 µM",0%
"TTACTTAGACATTACT (sugars k3 d10 k3, PS)",target mRNA inhibition,"IRF4; SK-MEL-28, 4 µM",48%
"TGCCGAACTCTCCGCC (sugars k3 d10 k3, PS)",target mRNA inhibition,"IRF4; SK-MEL-28, 4 µM",43%
"AGTGACTTGCATCCAT (sugars kkdddddddddkekek, PS)",target mRNA inhibition,"IRF4; MM.1R, 1 µM",27%
"TCGCCCATGAGTTGAA (sugars k3 d10 k3, PS)",target mRNA inhibition,"IRF4; SK-MEL-28, 4 µM",39%
"TAGGGATACAGCAGGC (sugars k3 d10 k3, PS)",target mRNA inhibition,"IRF4; SK-MEL-28, 4 µM",73%
"GCTACAAAGAGCACTG (sugars k3 d10 k3, PS)",target mRNA inhibition,"IRF4; SK-MEL-28, 4 µM",63%
"GTGGAACTCTAGTGTC (sugars k3 d10 k3, PS)",target mRNA inhibition,"IRF4; SK-MEL-28, 4 µM",12%
"ACTCAGCAAGTGTCTT (sugars k3 d10 k3, PS)",target mRNA inhibition,"IRF4; SK-MEL-28, 4 µM",47%
"ATCCACACCAATGGCA (sugars k3 d10 k3, PS)",target mRNA inhibition,"IRF4; SK-MEL-28, 4 µM",34%
"ATACATTGAGGCATAC (sugars k3 d10 k3, PS)",target mRNA inhibition,"IRF4; MM.1R, 1 µM",2%
"CCCACACCAGCCCGGG (sugars k3 d10 k3, PS)",target mRNA inhibition,"IRF4; SK-MEL-28, 4 µM",-6%
"TTGTGGACACTTTTAG (sugars k3 d10 k3, PS)",target mRNA inhibition,"IRF4; SK-MEL-28, 4 µM",49%
"CTCCTTTTTTGGCTCC (sugars k3 d10 k3, PS)",target mRNA inhibition,"IRF4; SK-MEL-28, 4 µM",19%
"AAACGAGTTGACACAG (sugars k3 d10 k3, PS)",target mRNA inhibition,"IRF4; SK-MEL-28, 4 µM",20%
"GGTGCTCCTAAATCAC (sugars k3 d10 k3, PS)",target mRNA inhibition,"IRF4; MM.1R, 1 µM",-1%
"CCCTACTGGGTACATG (sugars k3 d10 k3, PS)",target mRNA inhibition,"IRF4; SK-MEL-28, 4 µM",37%
"GAAATTGATACACCAA (sugars k3 d10 k3, PS)",target mRNA inhibition,HSD17B13,67%
"ACCAAACTTGCCCATA (sugars k3 d10 k3, PS)",target mRNA inhibition,HSD17B13,46%
"ATGCTACTTGAACAGT (sugars kkdddddddddkekek, PS)",target mRNA inhibition,HSD17B13,54%
"GTTTGACTGCTGCTAG (sugars k3 d10 k3, PS)",target mRNA inhibition,HSD17B13,58%
"AATGTCCTAGGATGTT (sugars k3 d10 k3, PS)",target mRNA inhibition,HSD17B13,70%
"ACTACATGACCTGGGT (sugars k3 d10 k3, PS)",target mRNA inhibition,HSD17B13,54%
"GCAGCTAAAATCCAAT (sugars k3 d10 k3, PS)",target mRNA inhibition,HSD17B13,70%
"CAGAAATTCACCTTGA (sugars k3 d10 k3, PS)",target mRNA inhibition,HSD17B13,28%
"GTAGCTTTTGTCCACC (sugars k3 d1 m1 d8 k3, PS)",target mRNA inhibition,HSD17B13,64%
"AATACTAATGTCCAAG (sugars k3 d10 k3, PS)",target mRNA inhibition,HSD17B13,65%
"GGTAACGGTGATCAAA (sugars k3 d10 k3, PS)",target mRNA inhibition,HSD17B13,51%
"GTCTAAACATCTCTGG (sugars kkdddddddddkekek, PS)",target mRNA inhibition,HSD17B13,50%
"CTTTTGTCCACCTTTA (sugars k3 d10 k3, PS)",target mRNA inhibition,HSD17B13,76%
"TAACTCTATTGATTGG (sugars k3 d10 k3, PS)",target mRNA inhibition,HSD17B13,51%
"CCTATGCAAATTCATA (sugars k3 d10 k3, PS)",target mRNA inhibition,HSD17B13,34%
"GGGAGTCGGATTATTT (sugars k3 d10 k3, PS)",target mRNA inhibition,HSD17B13,33%
"GATAGAGCACATGGCC (sugars k3 d10 k3, PS)",target mRNA inhibition,HSD17B13,20%
"TGTCUAAACATCTCTG (sugars k3 d1 m1 d8 k3, PS)",target mRNA inhibition,HSD17B13,44%
"TTGCAGAAATTCACCT (sugars k3 d1 m1 d8 k3, PS)",target mRNA inhibition,HSD17B13,29%
"CTTTCTATCAACCTGC (sugars k3 d10 k3, PS)",target mRNA inhibition,HSD17B13,68%
"AGGTTTAGCAATTTAG (sugars k3 d10 k3, PS)",target mRNA inhibition,HSD17B13,54%
"TCTTAAGGATCATTGC (sugars k3 d10 k3, PS)",target mRNA inhibition,HSD17B13,0%
"AAACAAGAGGATAGTC (sugars k3 d10 k3, PS)",target mRNA inhibition,HSD17B13,48%
"GCCAACAGCGGCAAAT (sugars k3 d10 k3, PS)",target mRNA inhibition,HSD17B13,30%
"ATAGAGTCGGTCACCT (sugars k3 d9 k3 e1, PS)",target mRNA inhibition,HSD17B13,67%
"TCAAATTAAGATGTCC (sugars k3 d10 k3, PS)",target mRNA inhibition,HSD17B13,6%
"CTACAGAGGAGTTTGC (sugars k3 d10 k3, PS)",target mRNA inhibition,HSD17B13,27%
"TTGAACAGTCTTAAAC (sugars k3 d1 m1 d8 k3, PS)",target mRNA inhibition,HSD17B13,11%
"GAACAGTCTTAAACCT (sugars kkdddddddddkekek, PS)",target mRNA inhibition,HSD17B13,63%
"ATTCGAAACTATTCAT (sugars k3 d10 k3, PS)",target mRNA inhibition,HSD17B13,24%
